Assay results reported in patent publication US9890149B2 (NuBridge BioSciences, priority 2015, dated 2018).
Structures can show the parent of a compound that is named as a salt.

Biological target: T1, ΔF508 mutant CFTR (Homo sapiens, UniProt P13569, DEL508-508)
T1 construct: expressed in transfected cells; host or cells: Fischer rat thyroid (FRT) cells
Test: Fluorescence Assay (halide-sensitive YFP, iodide influx) for ΔF508 mutant CFTR activity
Assay type: cell-based
Settings: FRT cells expressing ΔF508-CFTR and YFP-H148Q/I152L, incubated 27° C. 20-24 h; forskolin (20 μM) and test compounds (20 μM) for 20 min; rate of fluorescence quenching by I−, normalized to forskolin alone
From the text: The ΔF508 mutant CFTR activities of the CFTR modulators are detected using the Fluorescence Assay developed by Pedemonte (Pedemonte N., et al., Antihypertensive 1,4-dihydropyridines as correctors of the cystic fibrosis transmembrane conductance regulator channel gating defect caused by cystic fibrosis mutations, Mol. Pharmacol., 2005, 68, 1736-1746).
Fischer rat thyroid (FRT) cells, stably transfected with ΔF508 were retransfected with the YFP-H148Q/I152L fluorescent protein. The cells were plated (100,000 cells/well) on black 96-well microplates with clear plastic bottom (Corning Life Sciences, Acton, Mass.).
The 96-well microplates containing FRT cells expressing F508-CFTR and the halide-sensitive YFP were incubated at 27° C. for 20 to 24 h to allow rescue of the mutant protein to the plasma membrane. After incubation, cells were washed with PBS (containing 137 mM NaCl, 2.7 mM KCl, 8.1 mM Na2HPO4, 1.5 mM KH2PO4, 1 mM CaCl2, and 0.5 mM MgCl2) and stimulated for 20 min with forskolin (20 μM) and test compounds (20 μM) in a final volume of […] Microplates were then transferred to a microplate reader for CFTR activity determination.

T1 sequence (P13569 with tags, fused parts or gaps DEL508-508): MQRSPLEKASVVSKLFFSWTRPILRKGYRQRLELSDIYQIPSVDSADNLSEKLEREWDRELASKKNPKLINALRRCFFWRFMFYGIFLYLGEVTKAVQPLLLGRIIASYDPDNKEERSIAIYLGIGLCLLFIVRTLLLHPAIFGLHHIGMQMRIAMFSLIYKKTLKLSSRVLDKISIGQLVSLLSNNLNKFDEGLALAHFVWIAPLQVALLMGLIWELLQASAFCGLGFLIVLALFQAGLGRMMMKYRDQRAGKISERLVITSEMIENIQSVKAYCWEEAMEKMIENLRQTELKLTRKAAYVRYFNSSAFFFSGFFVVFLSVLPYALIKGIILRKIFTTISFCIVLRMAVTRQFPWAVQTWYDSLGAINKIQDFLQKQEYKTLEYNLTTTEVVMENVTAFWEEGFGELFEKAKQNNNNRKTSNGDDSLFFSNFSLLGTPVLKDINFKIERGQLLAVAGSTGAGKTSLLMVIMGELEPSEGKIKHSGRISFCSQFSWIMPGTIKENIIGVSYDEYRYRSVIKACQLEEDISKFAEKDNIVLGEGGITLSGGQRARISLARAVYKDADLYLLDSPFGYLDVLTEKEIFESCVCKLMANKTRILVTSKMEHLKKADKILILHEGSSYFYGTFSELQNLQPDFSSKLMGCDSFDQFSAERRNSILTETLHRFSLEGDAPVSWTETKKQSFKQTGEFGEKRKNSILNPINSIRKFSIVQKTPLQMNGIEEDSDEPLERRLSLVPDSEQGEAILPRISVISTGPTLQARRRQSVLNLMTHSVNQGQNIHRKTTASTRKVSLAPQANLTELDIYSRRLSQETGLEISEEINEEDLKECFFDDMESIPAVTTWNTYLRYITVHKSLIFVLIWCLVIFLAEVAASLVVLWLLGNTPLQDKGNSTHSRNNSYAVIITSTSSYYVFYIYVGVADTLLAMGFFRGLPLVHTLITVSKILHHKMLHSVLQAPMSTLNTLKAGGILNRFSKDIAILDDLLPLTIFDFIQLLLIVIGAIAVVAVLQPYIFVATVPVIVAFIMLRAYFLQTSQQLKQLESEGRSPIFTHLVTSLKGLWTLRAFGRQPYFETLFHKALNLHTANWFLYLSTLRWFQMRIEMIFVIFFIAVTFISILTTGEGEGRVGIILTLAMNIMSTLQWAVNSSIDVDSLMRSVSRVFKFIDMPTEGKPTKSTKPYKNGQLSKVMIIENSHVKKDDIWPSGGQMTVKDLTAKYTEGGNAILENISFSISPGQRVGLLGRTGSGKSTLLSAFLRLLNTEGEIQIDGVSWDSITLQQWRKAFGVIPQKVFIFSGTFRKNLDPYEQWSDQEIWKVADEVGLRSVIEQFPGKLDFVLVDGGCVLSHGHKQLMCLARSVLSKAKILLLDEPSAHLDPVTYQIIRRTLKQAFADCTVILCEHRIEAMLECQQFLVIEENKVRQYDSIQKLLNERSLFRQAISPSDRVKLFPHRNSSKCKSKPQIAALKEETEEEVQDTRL

SMILES	CFTR Activity
Cl.Nc1cc(F)c(-c2c(F)cccc2F)nc1C(=O)Nc1cnsc1OCC1CCNC1 (stereo not drawn) [Example 28, 3-amino-6-(2,6-difluorophenyl)-5-fluoro-N-(5-(pyrrolidin-3-ylmethoxy)isothiazol-4-yl)picolinamide hydrochloride]	1.7
Cl.NCC(CCl)COc1sncc1NC(=O)c1ccc(F)c(-c2c(F)cccc2F)n1 (stereo not drawn) [Example 30, N-(5-(3-amino-2-(chloromethyl)propoxy)isothiazol-4-yl)-6-(2,6-difluorophenyl)-5-fluoropicolinamide hydrochloride]	1.4
Cl.Nc1cc(F)c(-c2c(F)cccc2F)nc1C(=O)Nc1cnsc1OCC1CNC1 [Example 32, 3-amino-N-(5-(azetidin-3-ylmethoxy)isothiazol-4-yl)-6-(2,6-difluorophenyl)-5-fluoropicolinamide hydrochloride]	0.3
Cl.NCC(CCl)Oc1sncc1NC(=O)c1nc(-c2c(F)cccc2F)c(F)cc1N (stereo not drawn) [Example 33, 3-amino-N-(5-((1-amino-3-chloropropan-2-yl)oxy)isothiazol-4-yl)-6-(2,6-difluorophenyl)-5-fluoropicolinamide hydrochloride]	1.6
Cl.NCC(CCl)COc1sncc1NC(=O)c1nc(-c2c(F)cccc2F)c(F)cc1N (stereo not drawn) [Example 34, 3-amino-N-(5-(3-amino-2-(chloromethyl)propoxy)isothiazol-4-yl)-6-(2,6-difluorophenyl)-5-fluoropicolinamide hydrochloride]	1.6
Cl.NCCCCOc1sncc1NC(=O)c1nc(-c2c(F)cccc2F)c(F)cc1N [Example 36, 3-amino-N-(5-(4-aminobutoxy)isothiazol-4-yl)-6-(2,6-difluorophenyl)-5-fluoropicolinamide hydrochloride]	1.8
Cl.Nc1cc(F)c(-c2ccccc2)nc1C(=O)Nc1cnsc1OC1CCNC1 (stereo not drawn) [Example 38, 3-amino-5-fluoro-6-phenyl-N-(5-(pyrrolidin-3-yloxy)isothiazol-4-yl)picolinamide hydrochloride]	1.3
Cl.O=C(Nc1cnsc1OCC1CNC1)c1ccc(C(F)(F)F)c(-c2c(F)cccc2F)n1 [Example 44, N-(5-(azetidin-3-ylmethoxy)isothiazol-4-yl)-6-(2,6-difluorophenyl)-5-(trifluoromethyl)picolinamide hydrochloride]	0.3
O=C(Nc1cnsc1OCC1CCOCC1)c1ccc(C(F)(F)F)c(-c2c(F)cccc2F)n1 [Example 47]	0.6
Cl.Nc1cc(C(F)(F)F)c(-c2c(F)cccc2F)nc1C(=O)Nc1cnsc1OCC1CCNCC1 [Example 49, 3-amino-6-(2,6-difluorophenyl)-N-(5-(piperidin-4-ylmethoxy)isothiazol-4-yl)-5-(trifluoromethyl)picolinamide hydrochloride]	0.2
Cl.Nc1cc(C(F)(F)F)c(-c2c(F)cccc2F)nc1C(=O)Nc1cnsc1OCC1CNC1 [Example 50, 3-amino-N-(5-(azetidin-3-ylmethoxy)isothiazol-4-yl)-6-(2,6-difluorophenyl)-5-(trifluoromethyl)picolinamide hydrochloride]	0.1
Cl.Nc1cc(C(F)(F)F)c(-c2c(F)cccc2F)nc1C(=O)Nc1cnsc1O[C@H]1CC[C@H](N)CC1 [Example 52, 3-amino-N-(5-(((1r,4r)-4-aminocyclohexyl)oxy)isothiazol-4-yl)-6-(2,6-difluorophenyl)-5-(trifluoromethyl)picolinamide hydrochloride]	4.6
Cl.Nc1cc(C(F)(F)F)c(-c2ccccc2)nc1C(=O)Nc1cnsc1OC1CCNC1 (stereo not drawn) [Example 53, 3-amino-6-phenyl-N-(5-(pyrrolidin-3-yloxy)isothiazol-4-yl)-5-(trifluoromethyl)picolinamide hydrochloride]	0.4
Cl.NCC(CCl)COc1sncc1NC(=O)c1ccc(C(F)(F)F)c(-c2c(F)cccc2F)n1 (stereo not drawn) [Example 54, N-(5-(3-amino-2-(chloromethyl)propoxy)isothiazol-4-yl)-6-(2,6-difluorophenyl)-5-(trifluoromethyl)picolinamide hydrochloride]	0.5
Cl.NCC(CCl)COc1sncc1NC(=O)c1nc(-c2c(F)cccc2F)c(C(F)(F)F)cc1N (stereo not drawn) [Example 55, 3-amino-N-(5-(3-amino-2-(chloromethyl)propoxy)isothiazol-4-yl)-6-(2,6-difluorophenyl)-5-(trifluoromethyl)picolinamide hydrochloride]	0.5
Cl.NCC(CO)COc1sncc1NC(=O)c1ccc(F)c(-c2c(F)cccc2F)n1 (stereo not drawn) [Example 56, N-(5-(3-amino-2-(hydroxymethyl)propoxy)isothiazol-4-yl)-6-(2,6-difluorophenyl)-5-fluoropicolinamide hydrochloride]	0.5

Further lines, results first:

CFTR Activity	SMILES
2.8	Cl.Nc1cc(F)c(-c2c(F)cccc2F)nc1C(=O)Nc1cnsc1O[C@H]1CC[C@H](N)CC1 [Example 27, 3-amino-N-(5-(((1r,4r)-4-aminocyclohexyl)oxy)isothiazol-4-yl)-6-(2,6-difluorophenyl)-5-fluoropicolinamide hydrochloride]
1.4	NCC(CCl)Oc1sncc1NC(=O)c1ccc(F)c(-c2c(F)cccc2F)n1 (stereo not drawn) [Example 29, N-(5-((1-amino-3-chloropropan-2-yl)oxy)isothiazol-4-yl)-6-(2,6-difluorophenyl)-5-fluoropicolinamide hydrochloride]
0.1	Cl.Nc1cc(F)c(-c2c(F)cccc2F)nc1C(=O)Nc1cnsc1OC1CNC1 [Example 31, 3-amino-N-(5-(azetidin-3-yloxy)isothiazol-4-yl)-6-(2,6-difluorophenyl)-5-fluoropicolinamide hydrochloride]
1.6	Cl.Nc1cc(F)c(-c2c(F)cccc2F)nc1C(=O)Nc1cnsc1OCC1CCCNC1 (stereo not drawn) [Example 35, 3-amino-6-(2,6-difluorophenyl)-5-fluoro-N-(5-(piperidin-3-ylmethoxy)isothiazol-4-yl)picolinamide hydrochloride]
2.9	Cl.Nc1cc(F)c(-c2c(F)cccc2F)nc1C(=O)Nc1cnsc1OC1CCCC(N)C1 (stereo not drawn) [Example 37, 3-amino-N-(5-((3-aminocyclohexyl)oxy)isothiazol-4-yl)-6-(2,6-difluorophenyl)-5-fluoropicolinamide hydrochloride]
0.3	Cl.O=C(Nc1cnsc1OC1CCNCC1)c1ccc(F)c(-c2ccncc2)n1 [Example 39, 3-fluoro-N-(5-(piperidin-4-yloxy)isothiazol-4-yl)-[2,4′-bipyridine]-6-carboxamide hydrochloride]
1.4	Cl.O=C(Nc1cnsc1OC1CCCNCC1)c1nc(-c2c(F)cccc2F)ccc1F (stereo not drawn) [Example 40, N-(5-(azepan-4-yloxy)isothiazol-4-yl)-6-(2,6-difluorophenyl)-3-fluoropicolinamide hydrochloride]
1.6	COc1cccc(F)c1-c1nc(C(=O)Nc2cnsc2OC2CCCNCC2)ccc1F.Cl (stereo not drawn) [Example 41, N-(5-(azepan-4-yloxy)isothiazol-4-yl)-5-fluoro-6-(2-fluoro-6-methoxyphenyl)picolinamide hydrochloride]
0.4	Cl.O=C(Nc1cnsc1OC1CCCNCC1)c1ccc(C(F)(F)F)c(-c2c(F)cccc2F)n1 (stereo not drawn) [Example 42, N-(5-(azepan-4-yloxy)isothiazol-4-yl)-6-(2,6-difluorophenyl)-5-(trifluoromethyl)picolinamide hydrochloride]
0.3	Cl.O=C(Nc1cnsc1OCC1CCNCC1)c1ccc(C(F)(F)F)c(-c2c(F)cccc2F)n1 [Example 43, 6-(2,6-difluorophenyl)-N-(5-(piperidin-4-ylmethoxy)isothiazol-4-yl)-5-(trifluoromethyl)picolinamide hydrochloride]
1.7	Cl.O=C(Nc1cnsc1OC1CCNCC1)c1ccc(C(F)(F)F)c(-c2c(F)cccc2F)n1 [Example 45, 6-(2,6-difluorophenyl)-N-(5-(piperidin-4-yloxy)isothiazol-4-yl)-5-(trifluoromethyl)picolinamide hydrochloride]
1	Cl.N[C@H]1CC[C@H](Oc2sncc2NC(=O)c2ccc(C(F)(F)F)c(-c3c(F)cccc3F)n2)CC1 [Example 46, N-(5-(((1r,4r)-4-aminocyclohexyl)oxy)isothiazol-4-yl)-6-(2,6-difluorophenyl)-5-(trifluoromethyl)picolinamide hydrochloride]
0.7	Cl.Nc1cc(C(F)(F)F)c(-c2c(F)cccc2F)nc1C(=O)Nc1cnsc1OC1CCCNCC1 (stereo not drawn) [Example 48, 3-amino-N-(5-(azepan-4-yloxy)isothiazol-4-yl)-6-(2,6-difluorophenyl)-5-(trifluoromethyl)picolinamide hydrochloride]
0.7	Cl.Nc1cc(C(F)(F)F)c(-c2c(F)cccc2F)nc1C(=O)Nc1cnsc1OC1CCNCC1 [Example 51, 3-amino-6-(2,6-difluorophenyl)-N-(5-(piperidin-4-yloxy)isothiazol-4-yl)-5-(trifluoromethyl)picolinamide hydrochloride]
